Laboratory results published in paper PMC11061149, “Protein mimetic 2D FAST rescues alpha synuclein aggregation mediated early and post disease Parkinson’s phenotypes” (Nature Communications, 2024).
Where “and” joins values, the source holds several entries; their conditions need not be identical. Equal values may be shown once. Values belong to the compound of their own block, whether it stands above or below them.

Experiments:
[1] = target: T1, α-Synuclein (αS) aggregation (Homo sapiens, UniProt P37840); assay: Thioflavin T (ThT) dye-based αS aggregation assay (de novo); type: biochemical; details: for ThT intensity relative to Synuclein alone (=1), Average / ThT intensity relative to Synuclein alone (=1), Trial 1-3: 100 µM αS, four days; for remaining activity at 100 µM: 96 h, pH 6.5, 100 μM αS, 1×PBS pH 6.5, four days, ligand:αS equimolar, read-out: ThT signal/intensity relative to αS alone (100%)
T1 construct: made in house; host or cells: E. coli BL21(DE3)
Description: We used a 2D FAST approach in OPs to identify potent antagonists of the aggregation of αS. In this approach, we start with a library of monopyridyls with different functional groups. The library of monopyridyls was synthesized using 2-chloro-6-methyl-3-nitropyridine as a common precursor, which was treated with primary alcohols with diverse side chain functionalities via a one-pot reaction (Fig. 1B, a and see Supplementary information for synthetic details). […] We selected the side chains containing hydrophobic, polar, positively charged, and negatively charged functional groups, which mimic the side chains of the amino acids (Fig. 1C). […] The monopyridyl library was screened against the aggregation of 100 μM αS at an equimolar ratio using Thioflavin T (ThT) dye-based aggregation assay (Fig. 1B, b). […] The chloro-dipyridyl was reacted with a library of primary amines/thiols to synthesize a library of dipyridyls (Fig. 1B, e) using a one-pot reaction. […] However, a few dipyridyls required column chromatography to separate them from the starting material side chains because of their very high boiling point (7 out of 21 dipyridyls required column, Supplementary Fig. 1). […]
Aggregation Kinetics were measured according to a previously described protocol. […] The solutions were placed in a ThermoMixer (Eppendorf, Hamberg, Germany) at 37 °C with constant shaking at 1300 rpm (rpm). At different time points, 5 μL aliquots of each αS solution were added to 95 μL PBS containing 50 μM Thioflavin T (ThT) dye in a Costar black 96 well plate (Corning Inc., Kennebunk, ME). ThT fluorescence intensity was measured (λex = 450 nm and λem = 490 nm) on an Infinite M200PRO plate reader (Tecan, Männedorf, Switzerland), and plotted against time to give a sigmoidal curve typical of amyloid aggregation. For the single point ThT aggregation, 100 μM αS, in the absence and presence of ligands, was aggregated under the described conditions and the ThT fluorescence was reported at 96 h. The reported ThT intensity values are the average of each experiment conducted in triplicate, with the error bars representing the standard deviations or standard error of the mean (s.e.m.) as described in the main manuscript.

αS aggregation = target: T2, αS aggregation (Homo sapiens, UniProt P37840); assay: SDS-PAGE gel shift assay of soluble and insoluble αS fractions; type: biochemical; details: for αS band intensity, Total: individual trials
T2 construct: made in house; host or cells: E. coli BL21(DE3)
Description: The inhibition of αS aggregation by NS41 was also confirmed by TEM images, which show an abundance (Supplementary Fig. 3a) and low amount (Supplementary Fig. 3b) of αS fibers in the absence and presence of NS41, respectively. We used SDS-PAGE (Sodium dodecyl sulfate polyacrylamide gel electrophoresis) as a complementary assay to validate ThT results and to further characterize the antagonist activity of the monopyridyls against αS aggregation. We used a total of four monopyridyls with varying antagonist activity against αS aggregation for the SDS-PAGE assay. The solutions of αS (±monopyridyls) were centrifuged and the soluble and insoluble fractions were subjected to SDS-PAGE analysis as reported earlier (Fig. 2d, Supplementary Fig. 4a, see details in methods section). The band intensities of the gels in SDS-PAGE assay were quantified using ImageJ software. In the absence of ligands, ~12% of αS was found in the soluble fraction and the rest was found in the insoluble fraction (Fig. 2d, Supplementary Fig. 4a, b). In the presence of NS41 at molar ratios of 1:1 and 2:1 (NS41:αS), 48% and 73% of αS protein were found in the soluble fraction, respectively, and the rest of αS protein was found in the insoluble fraction (Fig. 2d, Supplementary Fig. 4a, b). […] The antagonist activity of the monopyridyls corroborated well from both ThT and the SDS-PAGE assays (Fig. 2a–d, Supplementary Fig. 4a, b). The higher the antagonist activity of monopyridyls against αS aggregation, the lower the ThT intensity and the higher the amount of αS remained in the soluble fraction (Fig. 2a–d, Supplementary Fig. 4a, b). […] It is important to note that NS41 contains a carboxyl (COOH) functional group side chain. […] We have also shown in that work that the foldamer binds to the N-terminus of αS because of its negatively charged COOH functional group interaction with the positively charged lysine residues of αS[24]. […] Additionally, we have also shown that the OPs with the COOH functional group are very effective inhibitors of aggregation of other amyloid proteins that contain lysine amino acid via the formation of salt bridges[30]–[34].
An αS solution (100 µM) was prepared in PBS with or without ligands and shaken ([…], 37 °C) until the fluorescence plateaued, as observed using the ThT aggregation assay, indicative of the aggregation of αS as a control (four days for most experiments unless otherwise mentioned). The solutions were separated into soluble and insoluble fractions by centrifugation at 22,000 × g for 20 min. The fractions were diluted in 2×Laemmli protein sample loading buffer (Containing 2.1% SDS, Bio-rad, Hercules, CA), boiled at 95 °C for 5 min, and ran on a 12% Mini-PROTEAN precast protein gel (Bio-rad, Hercules, CA). The gel was visualized using ChemiDoc MP Imaging System (Bio-rad, Hercules, CA) and band intensity was quantified using Image Lab image acquisition and analysis software (Bio-rad, Hercules, CA). Densitometry values were averaged from three technical replicates and reported with the error bars representing their standard deviations.

αS fibers = target: T3, αS fibers (Homo sapiens, UniProt P37840); assay: Transmission electron microscopy (TEM) of αS solutions; type: biochemical; details: 100 µM αS aggregated for four days with ligand
T3 construct: made in house; host or cells: E. coli BL21(DE3)
Description: Transmission Electron Microscopy was used to visualize protein assemblies after aggregation experiments as previously described. Briefly, aliquots (5 μL) of αS solutions (with or without ligands) were applied on glow-discharged carbon-coated 300-mesh copper grids for 2 min and dried using Kimwipes (Kimberly-Clark, Irving, TX). The copper grids were negatively stained for 1 min with uranyl acetate (0.75%, w/v). The micrographs were taken on an FEI Tecnai G2 Biotwin TEM at 80 kV accelerating voltages.

UA196 worms = assay: Motility assay of UA196 worms in the presence of dopamine and NS163; type: in vivo, C. elegans; details: for Motility of worms, UA196+Dopamine: individual trials
Description: This motility assay was performed exactly as the previous assay with slight adjustment in the preparation of the plates for the treatment of UA196 worms. For this assay, the only difference is the 24 well plates were prepared with 2 mM dopamine (referred to as PLATE 5) and both 2 mM dopamine and 50 µM NS163 (referred to as PLATE 6). To prepare PLATE 5, the NGM media containing 75 µM FUDR was autoclaved and poured in NGM plates (2 mL total liquid). After 12 h, the NGM plates were seeded with 350 µL of OP50 (with OD = 0.5 at 600 nm) at 20 °C. After 12 h, 2 mM dopamine dissolved in M9 buffer (total volume = 300 µL) was spotted atop the NGM plates at 20 °C. To prepare PLATE 6, the NGM media containing 75 µM FUDR was autoclaved and poured in NGM plates (2 mL total liquid). After 12 h, the NGM plates were seeded with 350 µL of OP50 (with OD = 0.5 at 600 nm) at 20 °C. After 12 h, NS163 (50 µM, stock conc. = […] in DMSO) and dopamine (2 mM in M9 buffer) were dissolved in M9 buffer (total volume = 300 µL) and were spotted atop the NGM plates at 20 °C. The NGM plates treated with dopamine and NS163 and dopamine were placed in sterile laminar flow hood at 20 °C for 1 h. The NGM plates treated with dopamine and NS163 and dopamine were prepared and used within 24 h.
There were six conditions for this experiment: (1) N2 worms, (2) N2 worms treated with 2 mM dopamine, (3) UA196 worms, (4) UA196 worms treated with 2 mM dopamine, (5) UA196 worms treated with 50 µM NS163, and (6) UA196 worms treated with 2 mM dopamine and 50 µM NS163. For each condition, four biological replicates were performed, and each biological replicate consisted of four technical replicates (four wells). For each condition, the data were expressed as mean and the error bars report the s.e.m. (n = 4 independent experiments and each n consisted of a total of four technical replicates).

- ThT signal relative to αS alone (100%) ([1]; 100 μM αS, 1×PBS pH 6.5, NS41/αS 2:1): 17%
- ThT intensity relative to Synuclein alone (=1), Average ([1]; equimolar): 0.2889
- ThT intensity relative to Synuclein alone (=1), Trial 1-3 ([1]; equimolar, individual trials): 0.2946 and 0.2756 and 0.2964
- ThT intensity relative to Synuclein alone (=1), Average ([1]; ligand 2 mole Eq.): 0.162
- ThT intensity relative to Synuclein alone (=1), Trial 1-3 ([1]; ligand 2 mole Eq., individual trials): 0.1784 and 0.1666 and 0.1411
- remaining activity at 100 µM [1]: 29%
- αS protein found in the soluble fraction (αS aggregation; 100 µM αS, four days, NS41:αS 2:1): 73%
- αS protein found in the soluble fraction (αS aggregation; 100 µM αS, four days, ligand:αS 1:1): 48%
- αS band intensity, Total, Average (αS aggregation; sheet S4B, ligand 1 eq.): 100
- αS band intensity, Total (αS aggregation; sheet S4B, ligand 1 eq.): 95 and 102.5 (2×)
- αS band intensity, Total, Average (αS aggregation; sheet S4B, ligand 2 eq.): 100
- αS band intensity, Total (αS aggregation; sheet S4B, ligand 2 eq.): 96 and 102 (2×)
- αS fibers seen in TEM images, in words (αS fibers): low amount
SMILES: Cc1ccc([N+](=O)[O-])c(OCC(=O)O)n1 [NS41]

- ThT fluorescence intensity, Average ([1]; 100 µM αS + equimolar ligand, aggregation profile Fig. 2h, time 0 hr): 638.333
- attenuation of the ThT signal of αS aggregation ([1]; 100 μM αS, equimolar): 96%
- ThT intensity relative to Synuclein alone (=1), Average ([1]; equimolar): 0.04101
- ThT intensity relative to Synuclein alone (=1), Trial 1-3 ([1]; equimolar, individual trials): 0.05227 and 0.03887 and 0.03187
- ThT intensity relative to Synuclein alone (=1), Average ([1]; substoichiometric αS:ligand 1:0.5): 0.7474
- ThT intensity relative to Synuclein alone (=1), Trial 1-3 ([1]; substoichiometric αS:ligand 1:0.5, individual trials): 0.775 and 0.733 and 0.7343
- remaining activity at 100 µM [1]: 4%
- ThT fluorescence intensity, Average ([1]; Fig. 2h profile, time 12 hr): 699.667
- ThT fluorescence intensity, Average ([1]; Fig. 2h profile, time 24 hr): 689.333
- ThT fluorescence intensity, Average ([1]; Fig. 2h profile, time 48 hr): 722.667
- ThT fluorescence intensity, Average ([1]; Fig. 2h profile, time 72 hr): 793
- ThT fluorescence intensity, Average ([1]; Fig. 2h profile, time 96 hr): 631.333
- ThT fluorescence intensity, Average ([1]; Fig. 2h profile, time 144 hr): 658.333
- ThT fluorescence intensity, Average ([1]; Fig. 2h profile, time 192 hr): 603.333
- ThT fluorescence intensity, Average ([1]; Fig. 2h profile, time 300 hr): 570.333
- Relative ThT intensity of αS aggregation, Average ([1]; sheet S5A, Synuclein alone about 1): 0.04101
- Relative ThT intensity of αS aggregation ([1]; sheet S5A, Synuclein alone about 1, individual trials): 0.05227 and 0.03887 and 0.03187
- amount of αS in the insoluble fraction (αS aggregation; 100 µM αS, four days, equimolar): 26%
- αS band intensity, Total, Average (αS aggregation; sheet S5B): 100
- αS band intensity, Total (αS aggregation; sheet S5B): 95.6 and 105.4 and 99
- αS fibers seen in TEM images, in words (αS fibers): no
SMILES: Cc1ccc(NC(=O)c2ccc([N+](=O)[O-])c(NCC3CCCCC3)n2)c(OCC(=O)O)n1 [NS55]
- distribution of αS between soluble and insoluble fraction, in words (αS aggregation; substoichiometric ratio αS:ligand 1:0.5): a significant amount of αS protein was found in the insoluble form

SMILES: NCCc1ccc(O)c(O)c1 [dopamine]
- Motility of worms, UA196+Dopamine (UA196 worms; Day 4): 146 and 123 and 134 and 157
- Motility of worms, UA196+Dopamine (UA196 worms; Day 5): 129 and 128 and 126 and 106
- Motility of worms, UA196+Dopamine (UA196 worms; Day 6): 99 and 108 and 117 and 122
- Motility of worms, UA196+Dopamine (UA196 worms; Day 7): 108 and 102 and 112 and 99
- Motility of worms, UA196+Dopamine (UA196 worms; Day 8): 108 and 103 and 97 and 100
- Motility of worms, UA196+Dopamine (UA196 worms; Day 9): 93 and 88 and 92 and 89
- Motility of worms, UA196+Dopamine (UA196 worms; Day 10): 87 and 88 and 92 and 89
- Motility of worms, UA196+Dopamine (UA196 worms; Day 11): 75 and 62 and 83 and 87
- Motility of worms, UA196+Dopamine (UA196 worms; Day 12): 72 and 83 and 69 and 65
- Motility of worms, UA196+Dopamine (UA196 worms; Day 13): 51 and 78 and 67 and 62
- motility of UA196 worms treated with dopamine, in words (UA196 worms; dopamine 2 mM, day two and four): much higher motility
